This is an account of results in US20120122765A1, “COMPOUNDS AND RELATED METHODS FOR MANIPULATING PARP-1-DEPENDENT CELL DEATH” (priority 2010, published 2012).

Test [1] concerns PAR. Put plainly: dot-blot assay of AIF peptides with 32P-labeled PAR. It is filed as binding. The settings on record: for binding to PAR: peptides, 100 nM purified 32P-labeled PAR; for binding to 32P-labeled automodified PARP-1 or 32P-labeled purified PAR: peptides spanning only amino acids 567-592. Here is the method:
To determine whether these putative binding sites are in fact responsible for AIF binding to PAR, Applicants performed a dot-blot assay with peptides corresponding to these motifs in the presence of 100 nM purified ^32P-labeled PAR. FIG. 5 comprises black and white photos of representative dot-blot assay for full length WT-AIF, three AIF peptides formed from identified portions of AIFm, histone H3, and BSA in presence of 100 nM purified ^32P-labeled PAR.
(§1) Applicants thereafter repeated the experiments using both wild type and mutant AIFm peptides spanning only amino acids 567-592 instead of full length AIFm and obtained results consistent with those using full-length AIF. […] The double amino acid mutant Dm (corresponding to only amino acids 567-592 of AIF-Dm so as to consist of SEQ. ID NO. 16) bound PAR. […] Thus, it is preferred in embodiments of the invention when conducting genetic manipulations to convert at least three target basic amino acids in the PBM to hydrophobic amino acids.

The test system of test [2] is PAR. Put plainly: nitrocellulose saturation binding experiments.
Excerpt: as §1
The PAR polymer binding properties of the mutant Pbm-AIF was then measured using full-length recombinant His-WT-AIF and His tagged Pbm-AIF (“His-Pbm-AIF”) via a series of nitrocellulose saturation binding experiments. Similar experiments were also conducted for the shorter peptides Dm and Tm in comparison to WT. FIG. 10B through FIG. 10D comprise charts reporting data from these various experiments. With regard to the shorter peptides, Applicants determined that the binding affinity constant (“Kd”) and maximum binding capacity (“Bmax”) of these AIF mimetic peptides and the results are reported in the chart of FIG. 10B. […] FIG. 10D comprises a Scatchard plot (95% confidence interval) of the results.

Another test has as its system DNA. Put plainly: DNA retardation assay. Format: binding. Particulars: DNA (200 ng), 30 minutes. Here is the method:
AIF binding-mediated DNA mobility retardation was performed as described by H. Cande et al. (Nat Struct Biol, 2002). Recombinant His-tagged AIF (10 μg or 25 μg) was incubated with 1 kb DNA molecular weight marker (obtained from Fermentas) for 30 minutes at room temperature and loaded on 2.5% agarose gel prestained with ethidium bromide (1 μg/ml). Mobility shift was visualized under the Alpha Innotech UV illuminator.
Further, a DNA retardation assay of His-WT-AIF and His-Pbm-AIF was conducted by incubating both with DNA (200 ng) for 30 minutes, using BSA as a negative control.

The mark [3] stands for this setting: PAR binding, saturation binding.
Where [4] appears, read: PAR binding, saturation binding, ligand binding program of Sigma plot, read-out: Kd.

Read-outs that look alike come from different tables or passages of the source.

For the molecule “peptide composed of AIFm amino acids 222-244: peptide of mouse AIF amino acids 222-244, SEQ. ID NO. 1 (GGVAVLTGKKVVHLDVRGNMVKL; mouse)”, the “binding to PAR” value in the test with PAR [1] is on record as “bound less well”.
For “amino acids 567-592 of AIF-Tm, SEQ. ID NO. 17 LRDKVVVGIVLWNVFNRMPIAAAIIA (mouse) [Tm peptide]”, in the test on PAR [1], the “binding to 32P-labeled automodified PARP-1 or 32P-labeled purified PAR” value is on record as “failed to bind”. In the test on PAR [2] (setting [3]), this molecule showed a Bmax of 1.77 pmol. The Kd (usually the concentration at which binding is half-saturated) on PAR [2] (setting [4]) turned out to be 107000 nM. The “PAR binding in saturation binding experiments” value with PAR [2] (result in words) is “clearly reduced PAR binding”.
For “peptide composed of AIFm amino acids 441-463: peptide of mouse AIF amino acids 441-463, SEQ. ID NO. 5 (FYDIKLGRRRVEHHDHAVVSGRL; mouse)”, in the test with PAR [1], the “binding to PAR” value is “failed to bind PAR appreciably”.
For “amino acids 567-592 of AIF-Dm, SEQ. ID NO. 16 LRDKVVVGIVLWNVFNRMPIAAAIIK (mouse) [Dm peptide]”, in the test on PAR [1], the “binding to 32P-labeled automodified PARP-1 or 32P-labeled purified PAR” value is “bound PAR”. This molecule yielded a Bmax in the test with PAR [2] (setting [3]) of 3.97 pmol. Further, the dissociation constant Kd at PAR [2] (setting [4]) was found to be 3300 nM.

B1: His-WT-AIF: full-length recombinant His-tagged wild type mouse AIF (protein)
chain: MFRCGGLAGAFKQKLVPLVRTVYVQRPKQRNRLPGNLFQQWRVPLELQMARQMASSGSSGGKMDNSVLVLIVGLSTIGAGAYAYKTIKEDQKRYNERVMGLGLSPEEKQRRAIASATEGGSVPQIRAPSHVPFLLIGGGTAAFAAARSIRARDPGARVLIVSEDPELPYMRPPLSKELWFSDDPNVTKTLQFRQWNGKERSIYFQPPSFYVSAQDLPNIENGGVAVLTGKKVVHLDVRGNMVKLNDGSQITFEKCLIATGGTPRSLSAIDRAGAEVKSRTTLFRKIGDFRALEKISREVKSITVIGGGFLGSELACALGRKSQASGIEVIQLFPEKGNMGKILPQYLSNWTMEKVKREGVKVMPNAIVQSVGVSGGRLLIKLKDGRKVETDHIVTAVGLEPNVELAKTGGLEIDSDFGGFRVNAELQARSNIWVAGDAACFYDIKLGRRRVEHHDHAVVSGRLAGENMTGAAKPYWHQSMFWSDLGPDVGYEAIGLVDSSLPTVGVFAKATAQDNPKSATEQSGTGIRSESETESEASEITIPPSAPAVPQVPVEGEDYGKGVIFYLRDKVVVGIVLWNVFNRMPIARKIIKDGEQHEDLNEVAKLFNIHED
modifications: left off: small tags and cut ends
B1: the Bmax in the test with PAR [2] (setting [3]) came out at 200.83 pmol; with PAR [2] (specific binding (His-Pbm-AIF values subtracted), Scatchard analysis) it was 116.208 pmol. Further, the Kd on PAR [2] (setting [4]) was 100 nM; at PAR [2] (specific binding (His-Pbm-AIF values subtracted), Scatchard analysis, read-out: calculated Kd) it was 66.3 nM. In the test on DNA, the DNA-binding properties entry is “comparable”.
